Source: patent US11345957B2, “Methods of treating glioblastoma in a subject informed by exosomal RNA signatures” (Exosome Diagnostics, Inc., priority 2017, dated 2022)

Tested on: patients diagnosed with glioblastoma mutliforme (GBM)
Assay: Response of GBM patients to Dacomitinib treatment
Assay type: in vivo, human
From the text: Serum samples were collected from 14 patients diagnosed with glioblastoma mutliforme (GBM) before the administration of Dacomitinib (pre-treatment samples) and 1 month after the initiation of Dacomitinib treatment (post-treatment samples). Of the 14 patients, 7 were deemed to be “responders” to the drug and stayed on the drug for more than 6 months.

For `COc1cc2ncnc(Nc3ccc(F)c(Cl)c3)c2cc1NC(=O)/C=C/CN1CCCCC1` [Dacomitinib], the “time responders stayed on the drug” value (7 responders of 14 GBM patients) was “more than 6 months” and the “patients deemed to be "responders" to the drug” value (of the 14 patients diagnosed with GBM) was 7.
